Data: ChEMBL document CHEMBL4257491, “Discovery of indoleamine 2,3-dioxygenase inhibitors using machine learning based virtual screening” (Medchemcomm, 2018)
The source made the active and inactive calls. The rule behind the calls is not given here.

Experiments:
[1] = molecular target: T1, Indoleamine 2,3-dioxygenase 1 (Homo sapiens, UniProt P14902); experiment: Inhibition of IDO1 in IFNgamma-stimulated human HuH7 cells at 1 uM using L-tryptophan as substrate measured after 24 hrs relative to control
Target sequence in this assay (P14902 whole entry, looked up): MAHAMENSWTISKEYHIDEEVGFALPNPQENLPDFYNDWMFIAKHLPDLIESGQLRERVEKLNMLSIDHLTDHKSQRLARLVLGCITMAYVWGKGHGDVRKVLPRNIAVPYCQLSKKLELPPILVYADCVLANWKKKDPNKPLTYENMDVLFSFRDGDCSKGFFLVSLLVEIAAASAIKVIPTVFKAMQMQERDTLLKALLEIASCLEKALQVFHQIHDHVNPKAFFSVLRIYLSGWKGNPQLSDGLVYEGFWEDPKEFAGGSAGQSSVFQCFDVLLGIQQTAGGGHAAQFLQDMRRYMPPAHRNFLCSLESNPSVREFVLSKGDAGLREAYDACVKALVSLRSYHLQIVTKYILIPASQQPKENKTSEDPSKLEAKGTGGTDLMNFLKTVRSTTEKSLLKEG

[2] = Cytotoxicity against human HuH7 cells assessed as survival rate at 1 uM after 24 hrs by MTT assay relative to control; assay type: cell-based, Huh-7; details: read-out: Survival
[3] = molecular target: T1, Indoleamine 2,3-dioxygenase 1; experiment: Binding affinity to human HuH7 cell derived IDO1 expressed in Escherichia coli BL21 codon plus up to 10 uM by surface plasmon resonance analysis
Target sequence in this assay (P14902 whole entry, looked up): as above

[4] = molecular target: T1, Indoleamine 2,3-dioxygenase 1; experiment: Inhibition of human HuH7 cell derived IDO1 expressed in Escherichia coli BL21 codon plus using L-tryptophan as substrate measured after 1 hr by fluorescence assay
Target sequence in this assay (P14902 whole entry): as the sequence (P14902 whole entry, looked up) above

[5] = molecular target: T1, Indoleamine 2,3-dioxygenase 1; experiment: Inhibition of IDO1 in IFNgamma-stimulated human HuH7 cells at 10 uM using L-tryptophan as substrate measured after 24 hrs relative to control
Target sequence in this assay (P14902 whole entry, looked up): as above

[6] = Cytotoxicity against human HuH7 cells assessed as survival rate at 10 uM after 24 hrs by MTT assay relative to control; assay type: cell-based, Huh-7; details: read-out: Survival

SMILES | inhibition [1] | viability at 24 h, 1 µM [2] | Activity [3] | IC50 [4] | inhibition [5] | viability at 24 h, 10 µM [6]
Cc1cccc2c3c(ccc12)C1=C(C(=O)C3=O)C(C)CO1 (configuration not stated) | 54.3% | 94.7% | Active | 1.3 µM |  | 
Cc1c(-c2c(C)c(O)c3ccccc3c2O)oc2c1C(=O)C(=O)c1c-2ccc2c1CCCC2(C)C |  |  | Active | 4.1 µM | 21% | 97.1%
Cc1coc2c1C(=O)C(=O)c1c-2ccc2c1C=CCC2(C)C | 66.7% | 93% | Active | 4.68 µM |  | 
